Experimental data reported in patent US20240261274A1, “TREATMENT OF MYC-DRIVEN CANCERS WITH GSPT1 DEGRADERS” (MONTE ROSA THERAPEUTICS, INC., priority 2021, published 2024).

How the values were obtained:
[1] = system: NSCLC cell lines expressing high levels of N-Myc (NCI-H1155, ABC-1); assay: Viability of NSCLC cell lines treated with compound 210; assay type: cell-based, human; conditions: compared to low N-Myc lines EBC-1, NCI-H2023
Procedure: GSPT1 was degraded by compound 210 after six hours of treatment in high N-Myc NCI-H1155 and ABC-1 cells with a DC50 of 3 nM and 22 nM, respectively (x-axis represents M concentration of compound 210; y-axis represents the viability in %).

GSPT1 [2] = biological target: T1, GSPT1 (Homo sapiens, UniProt P15170+Q96SW2); assay: GSPT1 degradation by western blotting in NSCLC cell lines (compound 210); assay type: cell-based; design: endogenous in cells; conditions: NCI-H1155 and ABC-1 cells, six hours
T1 sequence (P15170 whole entry): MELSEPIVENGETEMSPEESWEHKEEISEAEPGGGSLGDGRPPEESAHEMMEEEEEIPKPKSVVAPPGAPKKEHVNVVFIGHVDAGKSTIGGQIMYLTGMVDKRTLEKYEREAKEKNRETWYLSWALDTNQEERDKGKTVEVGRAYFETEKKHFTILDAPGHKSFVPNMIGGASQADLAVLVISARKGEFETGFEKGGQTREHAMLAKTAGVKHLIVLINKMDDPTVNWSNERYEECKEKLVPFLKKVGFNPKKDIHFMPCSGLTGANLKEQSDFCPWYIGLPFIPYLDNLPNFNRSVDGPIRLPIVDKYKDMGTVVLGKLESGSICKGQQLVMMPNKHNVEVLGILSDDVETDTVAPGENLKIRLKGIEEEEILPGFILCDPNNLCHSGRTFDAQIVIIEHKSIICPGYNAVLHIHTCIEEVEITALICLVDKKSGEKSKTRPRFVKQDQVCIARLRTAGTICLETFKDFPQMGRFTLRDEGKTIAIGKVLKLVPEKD
T1 sequence (Q96SW2 whole entry): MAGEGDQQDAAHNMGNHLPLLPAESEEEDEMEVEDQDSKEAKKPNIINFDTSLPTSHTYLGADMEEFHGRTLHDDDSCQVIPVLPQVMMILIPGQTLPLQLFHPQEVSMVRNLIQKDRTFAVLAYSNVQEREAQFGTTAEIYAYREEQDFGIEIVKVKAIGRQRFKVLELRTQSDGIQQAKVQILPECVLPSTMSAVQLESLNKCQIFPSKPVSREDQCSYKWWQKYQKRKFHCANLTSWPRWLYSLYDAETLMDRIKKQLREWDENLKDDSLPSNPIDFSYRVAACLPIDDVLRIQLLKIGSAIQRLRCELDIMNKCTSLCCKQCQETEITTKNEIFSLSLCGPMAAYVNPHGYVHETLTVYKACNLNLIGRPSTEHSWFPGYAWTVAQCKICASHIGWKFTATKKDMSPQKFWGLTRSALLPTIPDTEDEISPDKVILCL
T1 sequence (Q16531 whole entry partner): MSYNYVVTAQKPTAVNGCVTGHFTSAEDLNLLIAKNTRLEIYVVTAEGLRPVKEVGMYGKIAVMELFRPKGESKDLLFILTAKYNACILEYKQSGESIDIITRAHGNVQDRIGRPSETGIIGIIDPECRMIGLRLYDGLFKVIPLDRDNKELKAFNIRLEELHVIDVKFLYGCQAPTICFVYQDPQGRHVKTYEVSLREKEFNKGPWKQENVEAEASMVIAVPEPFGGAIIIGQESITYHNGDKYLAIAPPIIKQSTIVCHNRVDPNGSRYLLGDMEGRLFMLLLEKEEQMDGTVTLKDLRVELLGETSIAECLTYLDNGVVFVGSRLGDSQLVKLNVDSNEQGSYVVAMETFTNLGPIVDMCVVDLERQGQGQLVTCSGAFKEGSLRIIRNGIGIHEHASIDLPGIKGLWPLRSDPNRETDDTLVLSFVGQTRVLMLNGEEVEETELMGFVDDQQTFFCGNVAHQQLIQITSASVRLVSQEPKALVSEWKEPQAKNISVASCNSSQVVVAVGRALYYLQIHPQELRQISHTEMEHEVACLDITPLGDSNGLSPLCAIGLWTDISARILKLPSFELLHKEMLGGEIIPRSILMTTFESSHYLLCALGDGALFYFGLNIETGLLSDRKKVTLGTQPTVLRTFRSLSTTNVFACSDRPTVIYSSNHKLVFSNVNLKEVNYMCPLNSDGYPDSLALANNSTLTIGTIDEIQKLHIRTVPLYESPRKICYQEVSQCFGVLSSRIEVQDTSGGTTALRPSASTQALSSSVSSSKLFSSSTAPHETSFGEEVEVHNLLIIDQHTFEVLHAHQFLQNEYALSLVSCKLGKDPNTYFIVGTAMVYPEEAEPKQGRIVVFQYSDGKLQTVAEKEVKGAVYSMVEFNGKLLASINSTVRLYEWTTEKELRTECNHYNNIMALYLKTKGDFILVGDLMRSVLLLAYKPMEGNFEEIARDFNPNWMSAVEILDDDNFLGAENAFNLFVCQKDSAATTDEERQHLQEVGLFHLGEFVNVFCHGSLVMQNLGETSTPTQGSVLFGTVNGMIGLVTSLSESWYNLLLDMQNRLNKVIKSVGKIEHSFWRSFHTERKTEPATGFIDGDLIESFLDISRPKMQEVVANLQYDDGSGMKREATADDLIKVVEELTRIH
Procedure: The anti-proliferative activity of compound 210 was tested on representative N-Myc high and N-Myc low cell lines (NCI-H1155, ABC-1 and EBC-1, NCI-H2023, respectively) following treatment with compound for 72 hours. Cells were sub-cultures as recommended by the providers (ATCC, DSMZ) and incubated at 37° C., 5% CO2. All cells were authenticated and confirmed by Short Tandem Repeat (STR) profiling. Briefly, cells were seeded to the appropriate density to allow logarithmic growth over the assay period in 96-well opaque-walled clear bottom plates (from Corning, Cat. No. 3903, Lot. No. 16419061; 100 μL total volume) and incubated overnight. […] Cell viability was assessed using the CellTiter-Glo assay kit as recommended by the Manufacturer (Promega, Cat. No. G7558, Lot. No. 0000385738) and measurements performed on the EnSpire multimode plate reader (Perkin Elmer). EC50 values were determined using Prism8 (GraphPad) and the asymmetric (five-parameter) equation and least squares fit. GSPT1 levels were assessed in the NCI-H1155 and ABC-1 cell lines by densitometry analysis following treatment with compound 210 for 6 hours and western blotting analysis. […] For chemiluminescence and colorimetric signals “optimal automatic exposure” settings (3×3 binning) were employed while fluorescence was detected using 1-4 seconds exposure time to achieve best GAPDH signals and avoid overexposure. […]

GSPT1 [3] = biological target: T1, GSPT1; assay: GSPT1 levels in NCI-H1155 tumors (Compound 345); assay type: in vivo, mice; design: from tissue; host or cells: NCI-H1155 subcutaneous xenograft tumours from BALB/c nude mice; conditions: day 5, 1 mg/kg and 10 mg/kg, strongest effect at 10 mg/kg
Procedure: Additionally, plasma concentrations of Compound 345 and levels of GSPT1 and […] (relative to vehicle-only control) were measured in a time-course experiment on day 5 for the animals receiving 1 mg/kg and 10 mg/kg.
GSPT1 and N-Myc western blotting analyses from NCI-H1155 tumors: The NCI-H1155 model was run as described previously and tumors were harvested following 5 consecutive daily PO doses of Compound 345 at 1.0 and 10 mg/kg. Tumors were lysed in 1× lysis buffer (CST, Cat. No. 9803, Lot No. 0000122383) supplemented with protease (Sigma, Cat. No. P8340) and phosphatase ((Sigma, Cat. No. P5726 and P0044) cocktail inhibitors using TissueLyser II (QIAGEN #85300). Samples were spined at 15,000 rpm in an Eppendorf microfuge for 15 min at 4° C. The protein supernatant was collected in a new 1.5 ml tube and the protein concentrations were determined by the Pierce BCA kit (Thermo, Cat. No. 23225). The tumor lysate samples were mixed with 5×SDS-PAGE loading buffer boiled for 5 min and brought to ice for 5 min. 30 μg of protein was loaded onto a NUPAGE 4-12% BT gel (Invitrogen, Cat. No. NPO336BOX) for separation. […] Membranes were imaged on the Odyssey imager (Li-COR) using fluorescence or cheminulinescence detection. […] Data are expressed as mean±SEM derived from at least three different mice and collected at 0, 2, 6, 12, 24, 48, 72 and 96 hr as indicated.

Compound | sensitivity to treatment (viability) [1] | extent of GSPT1 degradation (GSPT1 [2]) | GSPT1 level relative to vehicle-only control (GSPT1 [3])
Cc1ccc(NC(=O)OCc2ccc3c(c2)C(=O)N(C2CCC(=O)NC2=O)C3)cc1Cl (stereo not drawn) [Compound 210] | highly sensitive | Complete degradation of GSPT1 | –
O=C1CCC(N2Cc3ccc(COC(=O)Nc4cc(OC(F)(F)F)ccc4F)cc3C2=O)C(=O)N1 (stereo not drawn) [Compound 345, (2-(2,6-dioxopiperidin-3-yl)-3-oxoisoindolin-5-yl)methyl(2-fluoro-5-(trifluoromethoxy)phenyl)carbamate] | – | – | substantially reduced
